Data reported in patent publication US20210161837A1, “METHODS FOR TREATING CANCER WITH RORGAMMA INHIBITORS” (The Regents of the University of California, priority 2016, published 2021).

Assays:
Format in all cases: cell-based, human
22Rv1 cells = experiment: Cell survival: colony formation and apoptosis (caspase-3/7, TUNEL)
Method: (§1) Data shown are mean percentage of apoptotic cells±s.d. […] Data shown are mean±s.d. Significance was calculated using Student's t-test. *p<0.05, **p<0.01.
(§2) (a&b) C4-2B and 22Rv1 cell proliferation after the RORγ antagonist treatment. Cells were seeded in 6-well plates and counted after cells were treated with indicated concentrations of RORγ antagonists for 0, 2, 4 and 6 days by Coulter counter. […] (e) representative images of TUNEL positive cells treated with vehicle or the antagonist (5 μM) in 22Rv1 cells are shown. […] Three days later, cells were harvested for immunoblotting with indicated antibodies.
(§3) LNCaP, C4-2B, 22Rv, PC-3, and PC346C prostate cancer cells were cultured in RPMI1640, VCaP, HEK293T and human fibroblast IMR90 cells were in DMEM, LAPC-4 was in Iscove's MEM (all from Corning), and RWPE-1 and PZ-HPV-7 were in Keratinocyte Serum Free Medium (K-SFM) (Invitrogen) with the supplements. All the culture media except for RWPE-1 and PZ-HPV-7 were supplemented with 10% FBS (Hyclone) except indicated otherwise. For experiments, C4-2B cells were cultured in RPMI supplemented with 9% cds-FBS plus 1% regular FBS (to mimic the CRPC condition) unless indicated otherwise and 22Rv1 cells were cultured in RPMI supplemented with 10% cds-FBS. Cells were grown at 37° C. in 5% CO2 incubators. LNCaP, VCaP, 22Rv1, PC-3, 293T, IMR90, PZ-HPV-7 and RWPE-1 were from ATCC. […]

C4-2B cells = experiment: as above
Method: as §1, §2, §3

[1] = tested on: endogenous AR expression in RWPE1 and PZ-HPV7 cells; experiment: Immunoblotting of AR expression in non-malignant prostate epithelial cells
Method: Immunoblotting analysis of RORγ and AR expression in non-malignant, human prostate epithelial RWPE1 and PZ-HPV7 cells within indicated treatments is shown.
Total RNA was isolated from cells in 6-well or 10-cm plates or from xenograft tumors, and the cDNA was prepared, amplified and measured in the presence of SYBR as described in Yang, P., et al., Molecular and cellular biology 32, 3121-3131 (2012). Briefly, the fluorescent values were collected and a melting curve analysis was performed. Fold difference was calculated as described previously Yang, P., et al. (see, id). The experiments were performed at least three times with data presented as mean values±s.d. Cell lysates were analyzed by immunoblotting with antibodies specifically recognizing RORγ, AR, AR-V7 and the indicated proteins.

**Q.** For O=C(Cc1ccccc1[N+](=O)[O-])Nc1ccc(-c2ccc(C(O)(C(F)(F)F)C(F)(F)F)cc2F)cc1 [XY018, N-(2′-fluoro-4′-(1,1,1,3,3,3-hexafluoro-2-hydroxypropan-2-yl)-[1,1′-biphenyl]-4-yl)-2-(2-nitrophenyl)acetamide], which “inhibition of cell survival (colony formation, apoptosis)” value (22Rv1 cells) is on record?
**A.** pronounced inhibition of cell survival

**Q.** And the “inhibition of cell survival (colony formation, apoptosis)” value (C4-2B cells)?
**A.** pronounced inhibition of cell survival

**Q.** What about the “effect on endogenous AR expression in non-malignant cells” value [1] of the same compound?
**A.** did not have any significant effect
